In patent US12285464B2, “Therapeutic targets involved in the progression of nonalcoholic steatohepatitis (NASH)” (The Trustees of Columbia University in the City of New York, priority 2016, dated 2025):
“Also recorded” adds a separate entry of the source.

How the values were obtained:
[1] = test system: TAZ; assay: TAZ silencing after development of steatosis: AAV8-shTaz at week 8 of 16 weeks of FPC diet; format: in vivo, mice; details: shTaz at week 8, read at 16 weeks of FPC diet
From the text: To investigate the role of TAZ specifically in steatosis-to-NASH conversion, mice were first fed the FPC diet for 8 weeks and then injected with AA8-shTaz or control virus, followed by an additional 8 weeks on the diet. Note that 8 weeks of FPC diet caused steatosis but no appreciable inflammation or fibrosis (FIG. 6A).
(§1) Male wild-type mice C57BL/6J (#000664, 8-10 weeks/old) and MC4R-negative loxTB Mc4r mice (#006414, 6 weeks/old), referred to here as Mc4r^-/- mice, were obtained from Jackson Laboratory (Bar Harbor, ME) and were allowed to adapt to housing in the Columbia University Medical Center Institute of Comparative Medicine for 1 week prior to random assignment to experimental cohorts. The mice were then fed the following diets for the times indicated in the figure legends: (a) chow diet (Picolab rodent diet 20, #5053); (b) “fast-food” (FF). diet (TestDiet 1810060): high-fat diet with drinking water containing 42 g/L glucose and fructose (55%/45%, w/w); or (c) fructose-palmitate-cholesterol (“FPC”) diet (Teklad, TD.140154): similar to FF diet but with 1.25% added cholesterol and with palmitic acid, anhydrous milk fat, and Primex as the sources of fat and with a ˜60% decrease in vitamin E and a ˜35% decrease in choline compared with typical mouse diets. The detailed composition of these diets appear in Tables 1 and 2. For several experiments, groups of mice were placed on a methionine-choline-deficient diet (Teklad, TD. 90262) for 8 weeks, as described (Dixon et al., 2012). Adeno-associated virus (2×10^11 genome copy/mouse) was delivered by tail vein injection either 1 week prior to diet initiation or after 8 weeks of the FPC diet. Animals were housed in standard cages at 22° C. in a 12-12-h light-dark cycle. All animal experiments were performed in accordance with institutional guidelines and regulations and approved by the Institutional Animal Care and Use Committee at Columbia University.

[2] = test system: TAZ; assay: TAZ silencing with AAV8-shTaz in FPC-fed C57BL/6J mice, FPC diet for 16 weeks; format: in vivo; details: FPC diet 16 weeks
Procedure: (§2) To study TAZ function in NASH development, FPC mice were treated with AAV8-shTaz vs. AAV8-control RNA. […] Mouse body weight, liver:body weight ratio, fasting blood glucose, plasma insulin, and plasma cholesterol were similar in the Taz shRNA and control groups.
The following antibodies were used for immunoblots: GAPDH (#3683), β-actin (#5125), CHOP (#5554), TAZ (#8418), p-eIF2α (#3398), eIF2α (#5324), Lamin A/C (#4777) from Cell Signaling; p-TAZ (sc-17610) and Col1a1 (sc-8784) from Santa Cruz; Ihh (ab39634) from Abcam; and Timp1 (AF980) from R & D. The following antibodies were using for immunostaining of liver: α-SMA (ACTA2) (C6198, F3777) and TAZ (HPA007415) from Sigma; F4/80 (MCA497GA) from AbD Serotec; Ly6g (#127601) from Biolegend; Ly6b (MCA771G) from Bio-Rad; OPN (AF808) from R & D; 4-hydroxynonenal (4-HNE) (AB5605) from Millipore; and HNF4α (sc-6556) from. Santa Cruz. The following plasma assay kits were used in this study: insulin ELISA (#90080) from. Crystal Chem; MCP1 ELISA (#88-7391-22) from eBiosciences; cholesterol (#439-17501) and triglyceride (#465-09791, #461-09891) from Wako; and ALT (#006A-CR) and AST (#004A-CR) from BQ Kits, Inc. AAV8-shRNA targeting murine Taz was made by annealing complementary oligonucleotides (5′-CACCAcagcegaatctcgcaatgaatCTCGAGATTCATTGCGAG ATTCGGCTG-3′) (SEQ ID NO:1), which were then ligated into the pAAV-RSV-GFP-H1 vector, as described previously (Lisowski et al., 2014). The resultant constructs were amplified by the Salk Institute Gene Transfer, Targeting, and Therapeutics Core.
as §1
Fasting blood glucose was measured using a glucose meter (One Touch Ultra, Life-scan) in mice that were fasted for 4-5 h, with free access to water. Complete blood counts were obtained with the FORCYTE Veterinary Hematology Analyzer (Oxford Science, Inc.). Total plasma triglyceride and cholesterol were assayed using a commercially available kit from Wako. For insulin, MCP1, AST, ALT, TC, TG are measured following kit instruction by using plasma.
Formalin-fixed, paraffin-embedded liver sections were stained with hematoxylin and eosin (H&E) and evaluated for severity of NAFLD by a trained hepatopathologist blinded to the clinical diagnosis, αaccording to criteria described by Brunt et al. (Kleiner et al., 2005; Liang et al., 2014). […]

[3] = test system: TAZ; assay: shTaz in the MCD (methionine/choline-deficient) diet model; format: in vivo, mice
From the text: Thus, in separate models of NASH, hepatic TAZ silencing improved key liver parameters related to inflammation, fibrosis, and cell death without affecting metabolic parameters or steatosis.
as §1

[4] = test system: TAZ; assay: TAZ silencing with AAV8-shTaz in FPC-fed hyperphagic Mc4r-/- mice, 16 weeks; format: in vivo; details: FPC diet 16 wks
Procedure: as §2, §1
Formalin-fixed, paraffin-embedded liver sections were stained with hematoxylin and eosin (H&E) and evaluated for severity of NAFLD by a trained hepatopathologist blinded to the clinical diagnosis, αaccording to criteria described by Brunt et al. (Kleiner et al., 2005; Liang et al., 2014). Liver fibrosis was assessed by Picrosirius (Sirius) red (Polysciences, #24901) or by Masson's trichrome staining (Sigma, HT15), with aniline blue-positive areas quantified as a measure of collagen content in the trichrome-stained. sections. TUNEL staining was conducted using a kit from Roche (#12156792910). For immunofluorescence microscsopy, paraffin sections were rehydrated, subjected to antigen retrieval by placing in a pressure cooker for 10 mins in Target Retrieval Solution (Dako, S1699), and then blocked with serum. Sections were labeled with primary antibodies overnight, using a 1:150 dilution except for α-SMA and 4-HNE (1:200) and TAZ (1:400), followed by incubation with a fluorophore-conjugated secondary antibody for 1 h. The stained sections were mounted with DAPI-containing mounting medium (Life Technologies, P36935) and then viewed on an Olympus IX 70 fluorescence microscope. For filipin (Sigma, F9765) staining, frozen sections were fixed in 4% paraformaldehyde for 1 h at room temperature, then rinsed using glycine/PBS and stained 0.25 mg/ml filipin 2 h at room temperature. Fluorescence microscopic images were analyzed using ImageJ software. For immunohistochemistry, the deparaffinization, rehydration, and antigen retrieval processes were the same as with immunofluorescence staining. The slides were treated with 3% hydrogen peroxide for 10 min and then blocked with Serum-Free Protein Block (Dako, X0909) for 30 min. Sections were incubated with OPN, F4/80, or α-SMA primary antibody (1:100) overnight and then developed using DAB substrate kit (Cell Signaling, #8059) for OPN and F4/80,FITC-labeled anti-HRP secondary antibody for α-SMA.
Hydroxyproline liver content was measured as previously described (Bataller et al., 2003; Seki et al., 2009). […]

[5] = test system: PCSK9; details: modified stable siRNA, clinical trials; cited from earlier work
[6] = test system: primary murine hepatic stellate cells (HSCs); assay: Conditioned medium transfer from silenced AML12 hepatocytes to primary hepatic stellate cells; format: cell-based, mouse; details: CM from TAZ-silenced vs control hepatocytes, 72 h
From the text: To explore the possibility that TAZ-induced Ihh is secreted by hepatocytes and activates HSCs, an in vitro model using AML12 cells, a non-cancerous mouse hepatocyte cell line was utilized (Dumenco et al., 1995), along with primary murine HSCs. Consistent with the in vivo data, siTaz treatment of AML12 hepatocytes lowered cellular Ihh mRNA in the cells and Ihh protein in both the cells and media (FIGS. 8A-C). In the next experiments, conditioned medium (CM) from control or Taz-silenced AML12 cells was utilized, as well as medium not exposed to cells (non-CM), to primary murine hepatic stellate cells (HSCs). […] Finally, to make a more direct link between TAZ-induced Ihh in hepatocytes and activation of HSCs, Ihh was restored in siTaz-treated hepatocytes by Ihh transfection and then analyzed to determine whether this lessened the suppressive effect of CM from these cells on the expression of the fibrosis-related genes in HSCs. […]
(§3) AML12 mouse hepatocytes were purchased from ATCC (CRL-2254) and cultured in DMEM/F12 medium (Lifetechnologies, #11320) with 10% FBS (Gibco, #16140-071). […] For quantification of Ihh, hepatocyte conditioned medium was concentrated 10-fold by centrifugal filters (Millipore, Ultracel) and analyzed by an ELISA kit (LifeSpan Biosciences, F7953).

[7] = test system: Taz; assay: siTaz treatment of AML12 hepatocytes (Ihh mRNA, immunoblot, ELISA); format: cell-based, mouse
From the text: To explore the possibility that TAZ-induced Ihh is secreted by hepatocytes and activates HSCs, an in vitro model using AML12 cells, a non-cancerous mouse hepatocyte cell line was utilized (Dumenco et al., 1995), along with primary murine HSCs. Consistent with the in vivo data, siTaz treatment of AML12 hepatocytes lowered cellular Ihh mRNA in the cells and Ihh protein in both the cells and media (FIGS. 8A-C). In the next experiments, conditioned medium (CM) from control or Taz-silenced AML12 cells was utilized, as well as medium not exposed to cells (non-CM), to primary murine hepatic stellate cells (HSCs). […] Most importantly, CM from TAZ-silenced hepatocytes lowered the levels these mRNAs and protein compared to CM from shCon-treated hepatocytes (FIG. 8D). […] Finally, to make a more direct link between TAZ-induced Ihh in hepatocytes and activation of HSCs, Ihh was restored in siTaz-treated hepatocytes by Ihh transfection and then analyzed to determine whether this lessened the suppressive effect of CM from these cells on the expression of the fibrosis-related genes in HSCs. Transfection of TAZ-silenced hepatocytes with Ihh led to a level of Ihh in the CM that was similar to that in the CM of control hepatocytes (FIG. 8F—compare 1st and 4th bars). As before, the CM of TAZ-silenced hepatocytes suppressed Opn, Timp1 and Col1a1 mRNA in HSCs (FIG. 8G—compare 2nd and 4th bars), and the present results illustrate that restoration of Ihh in these TAZ-silenced cells rescued CM-induced HSC gene expression (FIG. 8G—compare 4th and 5th bars).
as §3, with “#16140-071). Hepatic stellate cells (HSCs) were isolated from 5-6 mo/o BALB/C mice as described previously (Mederacke et al., 2015).” for “#16140-071).”, “F7953). […]” for “F7953).”

Substance: 5′-CACCAcagcegaatctcgcaatgaatCTCGAGATTCATTGCGAG ATTCGGCTG-3′ (DNA CACCACAGCCGAATCTCGCAATGAATCTCGAGATTCATTGCGAGATTCGGCTG; expressed or natural sequence) [AAV8-shTaz, AAV8-shRNA targeting murine Taz; annealed oligonucleotides ligated into the pAAV-RSV-GFP-H1 vector]
- F4/80+ macrophages [1]: marked reductions
- fibrosis endpoints (aniline blue- and Sirius red-positive areas) [1]: marked reductions; also recorded: reduced
- inflammatory cells [1]: marked reductions; also recorded: reduced
- inflammatory- and fibrosis-related genes (Tnfa, Mcp1, Tgfb1, Acta2 mRNA) [1]: marked reductions; also recorded: reduced
- plasma ALT [1]: marked reductions; also recorded: reduced
- α-SMA+ cells [1]: marked reductions
- 4-HNE+ liver cells [2]: decrease
- TUNEL+ liver cells [2]: decrease
- inflammatory cell infiltration in liver sections [2]: marked reductions
- plasma ALT [2]: decreased
- steatosis [2]: not affected
- hepatic Ihh protein ([2]; immunoblot): suppressed
- F4/80+ macrophages ([2]; liver): decreases
- expression of mRNAs related to fibrosis (Acta2, Timp1, Des, Col1a1, Col1a2, Col3a1, Vim) ([2]; liver): robust reduction
- expression of mRNAs related to hepatic inflammation (Tnfa, Mcp1, F4/80 (Adgre1)) ([2]; liver): robust reduction
- α-SMA+ cells ([2]; liver): decreases
- silencing of TAZ in liver (immunoblot) ([2]; vs AAV8-control RNA): robust silencing
- Mouse body weight ([2]; vs control group): similar
- fasting blood glucose ([2]; vs control group): similar
- liver:body weight ratio ([2]; vs control group): similar
- plasma cholesterol ([2]; vs control group): similar
- plasma insulin ([2]; vs control group): similar
- fibrosis endpoints in liver sections ([2]; aniline blue, Sirius red): marked reductions
- hepatic fibrosis [3]: decreased
- hepatic inflammation [3]: decreased
- macrophages in the liver [3]: reduced
- steatosis [3]: without impacting
- α-SMA+ cells in the liver [3]: reduced
- inflammatory and fibrotic gene expression ([3]; liver): reduced
- hydroxyproline content of liver [4]: lower; also recorded: reduced
- liver inflammation (hepatic inflammatory cells) [4]: decreased; also recorded: reduced
- plasma ALT [4]: reduced
- staining for Sirius red ([4]; liver): decreased staining
- staining for aniline blue ([4]; liver): decreased staining
- staining for α-SMA ([4]; liver): decreased staining

Substance: Inclisiran
- toxicity profile [5]: very low toxicity profiles

Substance: siTaz: siRNA against mouse Taz purchased from IDT; target sequence ACAUGGACGAGAUGGAUACAGGUGA (sense ACAUGGACGAGAUGGAUACAGGUGA; purchased from IDT, chemistry not given here; the letters are possibly those of the target site)
- Opn, Timp1 and Col1a1 mRNAs and protein in HSCs [6]: lowered
- cellular Ihh mRNA [7]: lowered
- Ihh protein in the media ([7]; ELISA): lowered
- Ihh protein in the cells ([7]; immunoblot): lowered
